Consider 4 compounds from US9593376B2, “Natural killer p30 (NKp30) dysfunction and the biological applications thereof” (INSTITUT GUSTAVE ROUSSY, priority 2008, dated 2017).

Where a name gives a salt, the structure may show the parent alone.

Data set [1] has as its system alternative splicing of NCR3 gene (NKp30 SHORT, INTER, LONG isoforms) in NK92 cells. Briefly: Modulation of alternative splicing of NCR3 gene in NK92 cells (RT-PCR of NKp30 isoform proportions). Format: cell-based, human. The following applies: 2 μM with IL-2 (50 UI/ml), 36 h at 37° C., FIG. 14B. The procedure:
(§1) FIG. 14. Modulation of alternative splicing of NCR3 gene with histone deacetylase inhibitors and DNA methyltransferase inhibitors (part A of experimental section)
(§2) NKp30 isoform proportions are shown as the ratio of the sum of WT—(variable Ig-like) and DEL—(constant Ig-like) extracellular domain relative quantities of each isoform (SHORT-, INTER- and LONG-tail isoforms) and the total quantity of the six isoforms.
(B) NK92 cells were seeded (5.10^5 NK/well) in 96 wells plates and incubated with 5-azacitidine (2 μM) (5AZA) and IL-2 (50 Ul/ml) for 36 h at 37° C.
(§3) Total cellular RNA was isolated from PBMC and NK cell lines with the RNeasy kit (Qiagen). First strand cDNA was synthesized from 5 μg of total RNA using SuperScript™ II Reverse Transcriptase and random primers (Promega) according to Invitrogen's instructions.
(§4) Modulation of NCR3 Alternative Splicing by HDAC and Demethylating Agents.
NK92 cells were seeded (5.10^5 NK/well) in 96 wells plates and incubated with 5-azacitidine (2 μM) and IL-2 (50 Ul/ml) for 36 h at 37° C.
(§5) Several approaches modulating alternative splicing may be used to operate a switch from NKp30 INTER^Low/SHORT^High/LONG^High (identified as profile B following the first results obtained in the present study (part A.)) towards NKp30 INTER^High/SHORT^Low/LONG^Low (identified as profile A following the first results obtained in the present study (part A.)). […]

Data set [2] relates to NKp30 transcriptional profile (PBMC of GIST patients). Kind of data set: NKp30 transcriptional profile stability in GIST patients during the course of imatinib mesylate treatment. Format: in vivo, human. As to conditions: GIST therapy, spanning several years in some cases, four patients, FIG. 4.
Text: FIG. 4. Representation of NKp30 transcriptional profile intra-individual stability in four GIST patients during the course of treatment
NKP30 transcriptional profile. NKp30 isoform proportions are shown as the ratio of the relative quantities of each isoform and the total quantity of the six isoforms. For each patient, the numbers in brackets represent the time post-treatment in months.
as §3
For the “GIST patients and Healthy Volunteers” cohort, real time quantitative PCR amplifications were conducted using FastStart DNA Master SYBRGreen I Mix according to the manufacturer's instructions, with 0.3 μM primers, 2 mM MgCl2 and cDNAs, in a 20 μl final reaction volume. Thermocycling was performed using a LightCycler (Roche Molecular System) initiated by 10 min incubation at 95° C., followed by 38 cycles (95° C., 1 s; 65° C., 10 s; 72° C., 20 s). NKp30 mRNA expression level was normalized by dividing its relative mRNA amount with the corresponding GAPDH mRNA amount.

Data set [3] has as its system alternative splicing of NCR3 gene (NKp30 SHORT, INTER, LONG isoforms) in YTS cells. Kind of data set: Modulation of alternative splicing of NCR3 gene in YTS cells (RT-PCR of NKp30 isoform proportions). Format: cell-based, human. The following applies: 100 nM, 45 h at 37° C., FIG. 14A. The procedure:
as §1, §2
(A) YTS cells were seeded (5.10^5 NK/well) in 96 wells plates and incubated with trichostatine A (100 nM) (TSA) for 45 h at 37° C.
as §3, §4
YTS cells were seeded (5.10^5 NK/well) in 96 wells plates and incubated with trichostatine A (100 nM) for 45 h at 37° C.
as §5

In data set [4] the test system is wild-type NCR3 gene splicing (NKp30 isoforms). Kind of data set: Modulation of wild-type NCR3 gene splicing by antisense oligonucleotides. The following applies: SEQ ID NO: 49-51 used in combination; no experiment described.

On to `Nc1ncn([C@@H]2O[C@H](CO)[C@@H](O)[C@H]2O)c(=O)n1` [5-azacitidine], for which, in data set [1], the “Proportions of NKp30 INTER, SHORT and LONG isoforms” value is “significant over-representation of INTER isoforms associated with an under-representation of SHORT and LONG isoforms”.

For the compound `Cc1ccc(NC(=O)c2ccc(CN3CCN(C)CC3)cc2)cc1Nc1nccc(-c2cccnc2)n1` [imatinib mesylate], in data set [2], the “Modulation of the pattern of NKp30 expression overtime” value is listed as “did not appear to modulate the pattern of NKp30 expression overtime”.

`CC(/C=C/C(=O)NO)=C\[C@@H](C)C(=O)c1ccc(N(C)C)cc1` [trichostatin A]: the “Proportions of NKp30 INTER, SHORT and LONG isoforms” value in data set [3] is “significant over-representation of INTER isoforms associated with an under-representation of SHORT and LONG isoforms”.

In the case of “antisense oligonucleotides corresponding to SEQ ID NO: 49-51: three antisense oligonucleotides used in combination: target polyadenylation signal 1, polyadenylation site 1, and INTER blocking (antisense 1 GGGGCAGATTTATTGGGGTC; antisense 2 CTCATGAGGAGTTAGTGGT; antisense 3 GTGACAGTGGCCTGGTCAGA; listed as DNA, chemistry not given here)”, the “Representation of NKp30 INTER, SHORT and LONG isoforms compared to reference or mean values” in data set [4] is “significant (relative) under-representation of NKp30 INTER isoforms associated with a relative over-representation of NKp30 SHORT and LONG isoforms”.
